Consider 7 compounds from PubChem BioAssay (NCI).

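How tested: cells in 96-well plates exposed to compound for 48 hours at five concentrations. TGI: total growth inhibition.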

Test systems include 786-0 renal; A498 renal; DU-145 prostate; EKVX NSCLC; HL-60(TB) leukemia; HS 578T breast; HT29 colon; KM12 colon; MCF7 breast; NCI-H522 lung; NCI/ADR-RES ovarian; OVCAR-8 ovarian; RPMI-8226 leukemia; SF-295 CNS; SNB-75 CNS; SR leukemia; TK-10 renal; UACC-62 melanoma; SK-MEL-2 melanoma; SNB-19 CNS.
Common to all, as to experiment: growth of human tumour cells (NCI), 48 h

With `C=C(C)CCC1C=[N+]([O-])OC(C)(C)C1(C)C` (stereo unspecified), the TGI in the test on 786-0 renal is above 100 µM; in the test on A498 renal, above 100 µM; with DU-145 prostate, above 100 µM; with EKVX NSCLC, above 100 µM; with HL-60(TB) leukemia, 73.8 µM; in the test with HS 578T breast, above 100 µM. The TGI in the test with HT29 colon, in the test on KM12 colon, with MCF7 breast, in the test with NCI-H522 lung, in the test on NCI/ADR-RES ovarian and in the test with OVCAR-8 ovarian was above 100 µM throughout. The TGI in the test on RPMI-8226 leukemia, in the test on SF-295 CNS, in the test on SNB-75 CNS, in the test with SR leukemia, in the test with TK-10 renal and in the test with UACC-62 melanoma was above 100 µM throughout.
As for `CCOC(=O)c1nc2cc(Cl)ccc2[nH]c1=O`, the TGI in the test with 786-0 renal, in the test on A498 renal, with DU-145 prostate, in the test with EKVX NSCLC, in the test with HL-60(TB) leukemia and in the test on HS 578T breast was above 100 µM throughout. In addition, the TGI with HT29 colon, in the test with KM12 colon, with MCF7 breast, in the test with NCI-H522 lung, in the test on NCI/ADR-RES ovarian and in the test on OVCAR-8 ovarian was above 100 µM throughout. Besides, the TGI in the test with RPMI-8226 leukemia, in the test on SF-295 CNS, in the test with SK-MEL-2 melanoma, with SNB-19 CNS, in the test with SR leukemia and in the test with TK-10 renal was above 100 µM in each case. The compound also came in with a TGI in the test with UACC-62 melanoma above 100 µM.
Take `Cn1cc2c3ccccc3nc-2c2ccccc21`: the TGI with 786-0 renal was 11.1 µM; in the test with A498 renal, 3.27 µM; in the test with DU-145 prostate it was 5.76 µM; with HL-60(TB) leukemia it was 4.48 µM; with HS 578T breast, 5.3 µM; in the test on HT29 colon it was 5.35 µM. The TGI with KM12 colon was 6.78 µM; with MCF7 breast it was 10 µM; in the test on NCI-H522 lung it was 3.18 µM; with NCI/ADR-RES ovarian it was 4.24 µM; in the test with OVCAR-8 ovarian it was 3.42 µM; with RPMI-8226 leukemia it was 3.94 µM. For the same compound, the TGI is 10.4 µM with SF-295 CNS; 3.52 µM in the test with SK-MEL-2 melanoma; 10.6 µM in the test on SNB-19 CNS; 6.6 µM with SNB-75 CNS; 2.1 µM in the test on SR leukemia; 20.6 µM in the test with TK-10 renal. In the test with UACC-62 melanoma, the TGI worked out at 3.15 µM.
On to `CCOC(=O)NN(C(=O)OCC)C(C(=O)c1ccccc1)N(NC(=O)OCC)C(=O)OCC`, for which the TGI with 786-0 renal, in the test with A498 renal, in the test on DU-145 prostate, with EKVX NSCLC, in the test on HL-60(TB) leukemia and with HS 578T breast was above 100 µM each time. The TGI in the test with HT29 colon, with KM12 colon, in the test on MCF7 breast, in the test with NCI-H522 lung, with NCI/ADR-RES ovarian and with OVCAR-8 ovarian was above 100 µM in each case. Besides, the TGI with RPMI-8226 leukemia, in the test with SF-295 CNS, in the test on SNB-19 CNS, with SNB-75 CNS, in the test with SR leukemia and with TK-10 renal was above 100 µM each time. For the same compound, in the test on UACC-62 melanoma, the TGI is above 100 µM.
`COc1ccc(N2C(=O)/C(=C/c3ccc(N(CCC#N)CCC#N)cc3)N=C2c2ccccc2)cc1`: the TGI in the test on 786-0 renal, in the test on A498 renal, with DU-145 prostate, in the test on EKVX NSCLC, in the test on HL-60(TB) leukemia and in the test with HS 578T breast was above 100 µM throughout. Further, the TGI in the test on HT29 colon, with KM12 colon, with MCF7 breast, in the test on NCI/ADR-RES ovarian, with OVCAR-8 ovarian and with RPMI-8226 leukemia was above 100 µM in each case. Further, the TGI with SF-295 CNS, with SK-MEL-2 melanoma, in the test on SNB-19 CNS, in the test on SNB-75 CNS, in the test on SR leukemia and with TK-10 renal was above 100 µM each time. Further, in the test on UACC-62 melanoma, the TGI was above 100 µM.
For `COc1ccc(-c2cc(-c3ccc(Nc4ccnc5cc(Cl)ccc45)cc3)[nH]c(=O)c2C#N)cc1`, the TGI in the test on 786-0 renal, with A498 renal, in the test with DU-145 prostate, with EKVX NSCLC, in the test with HL-60(TB) leukemia and in the test with HS 578T breast was above 100 µM in each case. In addition, the TGI in the test with KM12 colon, in the test on MCF7 breast, in the test on NCI-H522 lung, with NCI/ADR-RES ovarian, in the test on OVCAR-8 ovarian and with RPMI-8226 leukemia was above 100 µM throughout. The TGI in the test on SF-295 CNS, in the test with SK-MEL-2 melanoma, in the test on SNB-19 CNS, in the test with SNB-75 CNS, with SR leukemia and in the test on TK-10 renal was above 100 µM throughout. In the test with UACC-62 melanoma, the TGI was above 100 µM.
In the case of `CC(=O)NC(C)(C)C1CCC(C)CC1` (stereo unspecified), the TGI with 786-0 renal, with A498 renal, with DU-145 prostate, in the test on EKVX NSCLC, with HL-60(TB) leukemia and in the test with HS 578T breast was above 100 µM in each case. The TGI with HT29 colon, in the test with KM12 colon, in the test on MCF7 breast, in the test on NCI/ADR-RES ovarian, in the test with OVCAR-8 ovarian and in the test on RPMI-8226 leukemia was above 100 µM in each case. For the same compound, the TGI with SF-295 CNS, in the test with SNB-19 CNS, with SNB-75 CNS, with SR leukemia, with TK-10 renal and in the test with UACC-62 melanoma was above 100 µM in each case.
